Tests used:
Type in all cases: cell-based, human
IkBa and p65 = assay: Western blot / immunocytochemistry of TNF-induced IkBa and p65 events
Protocol: Honokiol inhibits TNF-induced activation of NF-kB. H1299 cells were incubated with […] honokiol for 12 h, treated with 0.1 nM TNF for the indicated times, and then analyzed for NF-kB activation by EMSA. (B) H1299 cells (2×10^6/ml) were incubated with […] honokiol for 12 h at 37° C., treated with 0.1 nM TNF for the indicated times at 37° C., and then tested for IkBa (upper panel) in cytosolic fractions by Western blot analysis. Equal protein loading was evaluated by b-actin (lower panel). (C) Honokiol blocks the phosphorylation and ubiquitination (D) of IkBaby TNF. Cells were preincubated with […] honokiol for 12 h, incubated with […]/ml N-acetyl-leucyl-leucyl-norleucinal (ALLN) for 30 min, and then treated with 0.1 nM TNF for 10 min. Cytoplasmic extracts were fractionated and then subjected to Western blot analysis using phospho-specific anti-IkBa antibody. The same membrane was reblotted with anti-IkBa antibody. (E) Honokiol inhibits TNF-induced IkBakinase activity. H1299 cells (2×10^6/ml) were treated with […] honokiol for 12 h and then treated with 0.1 nM TNF for the indicated time intervals. Whole-cell extracts were prepared, and 200 mg of extract was immunoprecipitated with antibodies against IKKa and IKKb. The immune complex kinase assay was then performed as described in Materials and Methods. To examine the effect of honokiol on the level of expression of IKK proteins, 30 mg of whole-cell extract was analyzed on 10% SDS-PAGE, electrotransferred, and immunoblotted with the indicated antibodies as described in Materials and Methods. (F) Honokiol inhibits TNF-induced nuclear translocation of p65. H1299 cells (2×10^6/ml) were either untreated or pretreated with […] honokiol for 12 h at 37° C. and then treated with 0.1 nM TNF for the indicated times. Nuclear extracts were prepared and analyzed by Western blotting using antibodies against p65. (G) honokiol inhibits TNF-induced nuclear translocation of p65. H1299 cells (1×10^6/ml) were first treated with […] honokiol for 12 h at 37° C. and then exposed to 0.1 nM TNF. After cytospin, immunocytochemical analysis was performed as described in Materials and Methods. […] (H) Honokiol inhibits TNF-induced phosphorylation of p65. H1299 cells (2×10^6/ml) were incubated with 25 mM honokiol for 12 h and then treated with 0.1 nM TNF for the indicated times. The cytoplasmic and nuclear extracts were analyzed by Western blotting using antibodies against the phosphorylated form of p65.
Western blot analysis. […] Cytoplasmic protein […] was resolved on 10% SDS-PAGE gel, transferred to a nitrocellulose membrane, blocked with 5% non-fat milk, and probed with specific antibodies against IkBa, posphorylated IkBa, p65, and phosphorylated p65. To determine the expression of cyclin D1, COX-2, MMP-9, cIAP-1, TRAF1, Bcl-2, Bfl-1, cFLIP, and survivin in whole-cell extracts of treated cells (2×10^6 cells in 2 ml of medium), […] of protein was resolved on SDS-PAGE and probed by Western blot with specific antibodies as per the manufacturer's recommended protocol. The blots were washed, exposed to HRP-conjugated secondary antibodies for 1 h, and finally detected by ECL reagent (Amersham Pharmacia Biotechnology, Piscataway, N.J.). The bands were quantified using a Personal Densitometer Scan v1.30 using Imagequant software version 3.3 (Molecular Dynamics).
Immunolocalization of NF-kB p65. […]

BMSCs = test system: BMSCs
Protocol: MNCs in BM specimens were also used to establish long-term bone marrow stromal cell (BMSC) cultures, as described in, for example, Uchiyama et al Blood. 1993; 82:3712-3720 and Hideshmia et al Oncogene. 2001; 20:4519-4527.
Reagents: Honokiol (HNK; Calbiochem, San Diego, Calif.) was dissolved in ethanol at 20 mg/ml stock solution. Recombinant human interleukin-6 (IL-6), vascular endothelial growth factor (VEGF) and insulin-like growth factor-1 (IGF-1) (R&D Systems, Minneapolis, Minn.) were reconstituted with sterile PBS containing 0.1% FBS (IL-6 and VEGF) and 10 mM of acetic acid containing 0.1% FBS (IGF-1), respectively. Pan-caspase inhibitor z-VAD-fmk (Bachem, Bubendorf, Switzerland) was dissolved in methanol. These reagents were stored at −20° C. and diluted by media just before the use. Doxorubicin (Sigma, St Louis, Mo.) was dissolved in sterile water at the concentration of 3.45 mM. As2O3 (5 mM in PBS) was provided by Cell Therapeutics Inc. (Seattle, Wash.). […] Absorbance readings at a wavelength of 450 nm were taken on a spectrophotometer (Molecular Devices Corp., Sunnyvale, Calif.).
The effect of HNK on MM cells in the presence of exogenous IL-6 and IGF-1, as well as BMSCs was evaluated. […] DNA synthesis was determined by measuring [^3H]-thymidine incorporation during the last 8 h of 48 h cultures. […]

HUVEC = assay: In Vitro Angiogenesis Assay (tube formation); settings: 8 ug/ml, 6 h

**Q.** `C=CCc1ccc(O)c(-c2ccc(O)c(CC=C)c2)c1` [HNK, Honokiol] was tested. Which “TNF-induced phosphorylation of p65” value (IkBa and p65) did it give?
**A.** Its value is “suppressed p65 phosphorylation almost completely”.

**Q.** And the “TNF-dependent IkBa degradation” value (IkBa and p65; 25 mM (printed) honokiol 12 h, 0.1 nM TNF)?
**A.** Its value is “TNF had no effect on IkBa degradation”.

**Q.** What about the “TNF-induced nuclear translocation of p65” value (IkBa and p65; Western blot analysis) of the same molecule?
**A.** Its value is “suppressed nuclear translocation of the p65 subunit of NF-kB”.

**Q.** And the “TNF-induced IkBa phosphorylation” value (IkBa and p65; with ALLN, 0.1 nM TNF 10 min)?
**A.** The value was “completely suppressed it”.

**Q.** And the “TNF-induced IkBa ubiquitination” value (IkBa and p65; with ALLN, 0.1 nM TNF 10 min)?
**A.** Its value is “completely suppressed it”.

**Q.** And the “viability of BMSCs” value (BMSCs)?
**A.** Its value is “did not affect the viability of BMSCs”.

**Q.** What about the “tube formation by endothelial cells” value (HUVEC) of the same molecule?
**A.** The value was “significantly inhibited the tube formation”.
